Results: patent US9809521B2, “Cannabidinoid derivatives” (priority 2011, dated 2017)

What was measured:
[1] = tested on: Id-1; assay: Quantitative Western analysis of Id-1 expression in different types of cancer cells; type: cell-based
Description: Quantitative Western analysis of Id-1 expression in different types of cancer cells with or without CBD treatment. Quantitative Western analysis was performed to examine whether CBD would downregulate Id-1 protein expression in cell lines for breast, prostate, salivary gland, head and neck, and glioblastoma cell lines. […] For the salivary gland cancer cell line, ACCM, a higher concentration of CBD (2.5 μM) was required to see a significant downregulation in Id-1 expression (FIG. 13, panel C (left)).

[2] = tested on: Id-1; assay: Quantitative Western analysis of Id-1 expression in U251 cells; type: cell-based, human
Description: Quantitative Western analysis of Id-1 expression in U251 cells with or without CBD treatment. To examine whether CBD would downregulate Id-1 protein expression in a GBM based cell line, quantitative Western analysis was performed with U251 cells.

[3] = tested on: U251 cells; assay: Apoptosis (annexin staining, FACS); type: cell-based, human
Description: Apoptosis: Cells were grown in 6 well culture dishes and were treated with compounds of the disclosure every 24 hours for three days. […] The labeled cells were analyzed by flow cytometry. Cell Flow Cytometry in combination with PI and annexin staining was used to quantify the percentage of cells undergoing apoptosis in control and treatment groups. Percent control was calculated as annexin positive staining in treated cells/control cells×100. PI staining was used to distinguish necrotic cells from those undergoing apoptosis.
Albeit, the magnitude of these effects was reduced compared to those observed with the combination treatment.
The concentrations of the individual cannabinoids (THC and CBD) were next increased in order to attempt to match levels of apoptosis produced by the combination treatment. The purpose of these experiments was to determine whether the compounds alone recruited similar pathways as compared to the combination of THC and CBD. […] However, THC alone could not produce the level of apoptosis observed with the combination treatment (FIG. 23, panel A and B).

[4] = tested on: 4T1 breast cancer cells; assay: Viability assay, combination with Paclitaxel; type: cell-based, mouse
Description: Viability Assays using drug combinations and statistical analysis: Multiple viability assays in a 96 well format were run for each compound and the average percent inhibition of cell viability was calculated and transformed to fraction affected (Fa) i.e., percent inhibitory effect. Additional CI values and a dose reduction index (DRI) were also calculated using Compusyn software. After determining the (IC50/Fa0.5) values of the drugs individually, components were then combined at the following concentration ranges: controls, 0.125×IC50, 0.25×IC50, 0.5×IC50 and a combination index was calculated where CI<1, =1, and >1 indicate synergism, additive effect, and antagonism, respectively.
Cell viability studies with 4T1 breast cancer cells using CBD in combination with Paclitaxel. […] The concentration response curves were first generated for Paclitaxel (PAC), CBD alone, and a combination of CBD and Paclitaxel (FIG. 11, panel A). The inhibitory values from the concentration response curves were then used to calculate combination index (CI) values at multiple combination ratios (FIG. 11, panel B). From which, the data was also used to calculate i) IC50 values, the slope of the curve (m) and a goodness of fit value (r).

[5] = tested on: Id-1; assay: Quantitative Western analysis of Id-1 protein expression in MDA-MB231 cells; type: cell-based, human; details: for Id-1 expression: 1 μM, both MDA-MB231 and 4T1 cells
Description: Quantitative Western analysis of Id-1 Expression in MDA-MB231 cells with CBD, Δ^9-THC, or WIN 55,212-2. The ability of CBD to regulate the expression of key genes that control breast cancer cell aggressiveness and invasiveness was determined.
SAR Analysis of Id-1 expression in MDA-MB231 cells with (Abn)-CBD receptor, Abn-CBD, O-1602, CP55,940, THC, CBN, or CBD. In order to determine the structure activity relationship (“SAR”) between cannabinoids and the inhibition of Id-1, MDA-MB231 cells were treated for two days with multiple cannabinoid compounds and Id-1 protein levels were assessed.
Quantitative Western analysis of Id-1 expression in MDA-MB231 cells and U251 cells with CBD or O-1663 CBD analog. […] MDA-MB231 breast cancer cells and U251 GBM cells were treated with 1.0 μM of cannabinoid for two days and then analyzed for Id-1 protein expression by quantitative Western analysis.

[6] = tested on: Id-1 gene; assay: PCR of Id-1 mRNA expression in MDA-MB231 cells; type: cell-based, human
Description: Polymerase Chain Reaction: Total cellular RNA was isolated from breast cancer cells treated with vehicle control or with CBD. Transcripts for Id-1 and for β-actin were reverse transcribed using SuperscriptII Reverse TranscriptaseII (Gibco-BRL), and polymerase chain reaction performed. The 5′ and 3′ PCR primers were […] (SEQ ID NO:1) and […] (SEQ ID NO:2) for Id-1; and […] (SEQ ID NO:3) and […] (SEQ ID NO:4) for β-actin. PCR was performed in buffer containing 1 μM of each of the 5′ and 3′ PCR primer and 0.5 U of Taq polymerase using 25 cycles for amplification of Id-1 and β-actin cDNAs. The cycle conditions were 45 sec denaturation at 94° C., 45 sec annealing at 55° C., and 1 min extension at 72° C.
Gene Expression Assays looking at Id-1 gene epression with CBD in MDA-MB231 cells. […] To determine if this effect was due to the inhibition of transcription, a construct was used that contained the Id-1 promoter fused to a luciferase reporter in a PGL-3 basic vector. This construct was transiently transfected into MDA-MB231 cells. Twenty-four hours after transfection, MDA-MB231-Id-1-luc cells were treated with CBD for 2 or 3 days and luciferase activity was measured (FIG. 3, panel B and panel C). […] These findings correlated to the data obtained when the expression of the Id-1 protein was assessed by Western analysis.

[7] = biological target: CB2 receptors (Homo sapiens, UniProt P34972); assay: Selectivity screen for CB2 receptors; type: binding
Chain of CB2 receptors (P34972 whole entry): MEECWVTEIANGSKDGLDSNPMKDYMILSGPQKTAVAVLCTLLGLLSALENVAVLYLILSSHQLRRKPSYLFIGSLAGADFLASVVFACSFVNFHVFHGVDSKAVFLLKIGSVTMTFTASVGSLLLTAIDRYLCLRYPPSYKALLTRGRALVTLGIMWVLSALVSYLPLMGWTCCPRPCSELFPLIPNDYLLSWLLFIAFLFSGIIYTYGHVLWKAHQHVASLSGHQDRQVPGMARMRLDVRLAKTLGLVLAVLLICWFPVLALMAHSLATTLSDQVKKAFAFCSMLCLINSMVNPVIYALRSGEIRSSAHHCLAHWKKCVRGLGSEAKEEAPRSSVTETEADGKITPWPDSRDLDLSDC

[8] = tested on: Id-1; assay: Quantitative Western analysis of Id-1 expression in 4T1 cells; type: cell-based, mouse; details: 1.0 μM, two days
Description: To examine whether CBD or O-1663 CBD analog would inhibit Id-1 protein expression in cells proposed for the in-vivo metastic cancer model, quantitative Western analysis was performed with 4T1 cells. 4T1 cells were treated with 1.0 μM of cannabinoid for two days and then analyzed for Id-1 protein expression.

Compound	Id-1 protein expression in MDA-MB231, MDA-MB436, PC3, DU145, SAS, U251 and SF126 ([1]; 1.5 μM)	concentration required for significant downregulation in Id-1 expression, ACCM ([1]; salivary gland cancer cell line ACCM)	Id-1 protein expression [2]	block of apoptosis by CB2 antagonist SR144528 ([3]; 0.5 μM SR144528, combination 1.7/0.4 μM, 2.5 μM THC, 2.0 μM CBD)	block of apoptosis by α-tocopherol ([3]; 20 μM α-tocopherol, combination 1.7/0.4 μM, 2.5 μM THC, 2.0 μM CBD)	apoptosis (annexin) ([3]; THC 1.7 μM, CBD 0.4 μM, three days)	interaction with Paclitaxel (combination index) [4]	Id-1 expression [5]	inhibition of Id-1 (structure activity relationship) ([5]; 1.5 μM, two days)	Id-1 protein expression ([5]; 0.1, 1.0, 1.5 μM, three days)	concentration at which inhibitory effect on Id-1 expression occurred ([5]; three days)	Id-1 mRNA expression [6]	selectivity CB2 receptors over CB1 receptors [7]	Id-1 protein expression compared with CBD [8]	Id-1 protein expression compared with CBD ([5]; 1.0 μM, two days, MDA-MB231 and U251 cells)
C=C(C)[C@@H]1CCC(C)=C[C@H]1c1c(O)cc(CCCCC)cc1O [CBD, cannabidiol]	significant inhibition of Id-1 protein expression	2.5 µM	concentration-dependent inhibition of Id-1 protein expression	no reversal was observed with SR144528	completely blocked by α-tocopherol	did not produce significant changes in apoptosis	acts synergistically with Paclitaxel	partial reduction of Id-1 expression	greatest inhibition of Id-1	concentration-dependent inhibition of Id-1 protein expression	≥ 100 nM	significantly reduced			
CCCCC(C)(C)c1cc(O)c(C2CCC(C3CCCCC3)CC2)c(O)c1 (stereo not shown) [Compound O-1663]								almost a complete down-regulation of Id-1 expression					selective for targeting CB2 receptors over CB1 receptors	downregulated Id-1 protein expression to a far greater extent than CBD	downregulated Id-1 protein expression to a far greater extent than CBD
